This is an account of results in patent US11918668B2, “Method for producing glyceryl ether-containing composition, and glyceryl ether-containing composition” (ADEKA CORPORATION, priority 2018, dated 2024).

Structures are written as SMILES.

The nature of this data set: Measurement of total area by solid phase microextraction GC/FID method. Also noted: unit not given here. It is filed as physicochemical. As to conditions: total area attributable to components other than the glyceryl ethers; 1.0 g glyceryl ether, 15 minutes at 50° C., after deodorization for the stated time. On the procedure: The total area, as measured using a solid phase microextraction GC/FID method, was measured for each of glyceryl ethers 1 to 12 following the deodorization. Specifically, 1.0 g of a deodorized glyceryl ether was placed in a container, impurities and by-products contained in the glyceryl ether were adsorbed on fibers of DVB/PDMS (divinylbenzene dispersed/polydimethylsiloxane) by heating for 15 minutes at 50° C., these fibers were placed in a holder, and measurements were carried out using gas chromatography (apparatus: GC-2014, produced by Shimadzu Corporation) under the measurement conditions shown below. The total area attributable to components other than the glyceryl ethers was then calculated on the basis of a JIS K 0114 (2012) absolute calibration curve using the analysis software of the chromatography apparatus.
Column: InertCap (registered trademark) PureWAX (length 30 m, film […] 0.50 μm, inner diameter […])
Carrier flow rate: 124.5 mL/min
Injection port temperature: 260° C.
Detector temperature: 260° C.
Consider `CCCCCCOCC(O)CO` (stereo not drawn) [Glyceryl ether 1, Monohexyl glyceryl ether], for which the Total area is 200,000.

Regarding `CCCCCCOCC(O)CO` (stereo not drawn) [Glyceryl ether 2, Monohexyl glyceryl ether], the Total area is 120,000.

Turning to `CCCCCCOCC(O)CO` (stereo not drawn) [Glyceryl ether 3, Monohexyl glyceryl ether], the Total area was 80,000.

On to `CCCCCCOCC(O)CO` (stereo not drawn) [Glyceryl ether 4, Monohexyl glyceryl ether], for which the Total area is given as 80,000.

For `CCCCCCOCC(O)CO` (stereo not drawn) [Glyceryl ether 5, Monohexyl glyceryl ether], the Total area is listed as 60,000.

Take `CCCCCCOCC(O)CO` (stereo not drawn) [Glyceryl ether 6, Monohexyl glyceryl ether]: the Total area was 50,000.

As to `CCCCCCOCC(O)CO` (stereo not drawn) [Glyceryl ether 7, Monohexyl glyceryl ether], the Total area is 50,000.

As for `OCC(O)COC1CCCCC1` (stereo not drawn) [Glyceryl ether 8, Monocyclohexyl glyceryl ether], the Total area was 300,000.

In the case of `OCC(O)COC1CCCCC1` (stereo not drawn) [Glyceryl ether 9, Monocyclohexyl glyceryl ether], the Total area is on record as 150,000.

For `OCC(O)COC1CCCCC1` (stereo not drawn) [Glyceryl ether 10, Monocyclohexyl glyceryl ether], the Total area is given as 90,000.

`OCC(O)COC1CCCCC1` (stereo not drawn) [Glyceryl ether 11, Monocyclohexyl glyceryl ether]: the Total area is reported as 50,000.

Take `OCC(O)COC1CCCCC1` (stereo not drawn) [Glyceryl ether 12, Monocyclohexyl glyceryl ether]: the Total area was 50,000.
